Results reported in article PMC10932284 (International Journal of Molecular Sciences, 2024).
Like-named read-outs stand apart in the source and are kept apart here.

What was measured:
MtCA1 = biological target: T1, MtCA1 (Mycobacterium tuberculosis, UniProt P9WPJ7); assay: biochemical; conditions: for Selectivity Index (SI) hCA II/MtCA1: ratio of Ki values
T1 construct: made in house

MtCA2 = biological target: T2, MtCA2 (Mycobacterium tuberculosis, UniProt P9WPJ9); assay: stopped-flow CO2 hydrase assay, MtCA2; format: biochemical; conditions: for Selectivity Index (SI) hCA II/MtCA2: ratio of Ki values
T2 construct: made in house
Procedure: BTDs 2a-2t were submitted to a stopped-flow CO2 hydrase kinetic assay to evaluate the inhibitory profile against the mycobacterial β-CAs MtCA1, MtCA2, MtCA3 (Table 1), in comparison to the inhibitory effect on hCA I and II, which were selected due to their abundance in the human organism and thus off-target in this study.
A stopped-flow instrument from Applied Photophysics was utilized to assess the inhibition of CA-catalyzed CO2 hydration activity. […] The assay employed 20 mM HEPES (pH 8.3) as a buffer and 20 mM Na2SO4 to maintain constant ionic strength. The investigation focused on the initial rates of the CA-catalyzed CO2 hydration reaction over a duration of 10–100 s. CO2 concentrations ranging from 1.7 to 17 mM were employed to determine kinetic parameters and inhibition constants. For each inhibitor, a minimum of six traces of the initial 5–10% of the reaction were utilized to determine the initial velocity. Uncatalyzed rates were determined in a similar manner and subtracted from the overall observed rates. Inhibitor stock solutions (0.1 mM) were initially prepared in distilled–deionized water, followed by subsequent dilutions up to 0.01 nM with the assay buffer. To allow for the formation of the E-I complex, inhibitor and enzyme solutions were preincubated together for 15 min at room temperature before the assay. The inhibition constants were derived through nonlinear least-squares methods using PRISM and the Cheng–Prusoff equation, as previously reported, representing the mean from at least three different determinations.

MtCA3 = MtCA3 (Mycobacterium tuberculosis, UniProt P96878); assay: biochemical; conditions: for Selectivity Index (SI) hCA II/MtCA3: ratio of Ki values; for Ki: stopped-flow CO2 hydrase assay, mean from three assays
[1] = tested on: M. tuberculosis strain susceptible to rifampicin and isoniazid; assay: tuberculostatic activity assay, strain susceptible to rifampicin and isoniazid; format: cell-based, Mycobacterium tuberculosis; conditions: for number of M. tuberculosis colonies/standard inoculum volume (0.2 mL): 28 days, 37 °C; for growth inhibition of mycobacteria (in words): 1 µg/mL
hCA I = biological target: hCA I; parameters: method as in PMID 31794211; conditions: stopped-flow CO2 hydrase assay; cited from earlier work
hCA II = biological target: hCA II; parameters: method as in PMID 31794211; conditions: stopped-flow CO2 hydrase assay; cited from earlier work
[2] = stopped-flow CO2 hydrase assay, mean from three assays, read-out: Ki MtCA1
[3] = 2 µg/mL in Lowenstein Jensen medium
[4] = 1 µg/mL in Lowenstein Jensen medium

T2 sequence (P9WPJ9 whole entry, looked up): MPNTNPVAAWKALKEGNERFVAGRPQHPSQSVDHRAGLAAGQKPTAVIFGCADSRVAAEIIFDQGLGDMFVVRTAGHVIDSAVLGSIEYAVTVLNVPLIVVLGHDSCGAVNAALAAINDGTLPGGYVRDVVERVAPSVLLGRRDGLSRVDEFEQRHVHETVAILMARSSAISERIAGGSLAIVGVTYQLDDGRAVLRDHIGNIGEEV
T1 sequence (P9WPJ7 whole entry): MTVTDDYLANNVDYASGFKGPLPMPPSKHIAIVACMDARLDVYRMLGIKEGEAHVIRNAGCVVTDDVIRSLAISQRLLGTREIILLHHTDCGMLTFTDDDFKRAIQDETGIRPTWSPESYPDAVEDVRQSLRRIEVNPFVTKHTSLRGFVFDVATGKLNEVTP
MtCA3, sequence (P96878 550-764 limits assumed): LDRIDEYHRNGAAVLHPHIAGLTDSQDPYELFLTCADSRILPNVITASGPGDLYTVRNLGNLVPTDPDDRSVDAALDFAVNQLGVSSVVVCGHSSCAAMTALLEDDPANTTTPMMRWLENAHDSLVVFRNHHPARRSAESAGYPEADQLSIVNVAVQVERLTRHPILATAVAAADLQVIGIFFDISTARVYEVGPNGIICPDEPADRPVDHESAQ

SMILES | Selectivity Index (SI) hCA II/MtCA1 (MtCA1) | Ki (MtCA1; [2]) [µM] | Ki (MtCA2) [µM] | Selectivity Index (SI) hCA II/MtCA2 (MtCA2) | Selectivity Index (SI) hCA II/MtCA3 (MtCA3) | Ki (MtCA3) [µM] | number of M. tuberculosis colonies/standard inoculum volume (0.2 mL) [1, 3] [colonies] | Ki (hCA I) [µM] | Ki (hCA II) [µM] | Ki (MtCA1) [µM] | growth inhibition of mycobacteria (in words) [1] | number of M. tuberculosis colonies/standard inoculum volume (0.2 mL) [1, 4]
O=C1Nc2ccccc2S(=O)(=O)N1 [2a] | 0.1 | 1.68 ± 0.093 | 0.0686 ± 0.0031 | 2.2 | 5.2 | 0.0287 ± 0.0021 | 0 | 0.866 | 0.15 |  |  | 
Cc1cccc2c1NC(=O)NS2(=O)=O [2b] | 0.1 | 1.46 ± 0.101 | 0.0585 ± 0.0017 | 2.5 | 6.8 | 0.0213 ± 0.0017 |  | 0.969 | 0.144 |  |  | 
Cc1ccc2c(c1)S(=O)(=O)NC(=O)N2 [2c] | 0.8 |  | 0.0413 ± 0.002 | 21.1 | 47.1 | 0.0185 ± 0.0016 | 0 | 1.07 | 0.872 | 1.05 ± 0.065 | active | 0 colonies
Cc1cc(C)c2c(c1)S(=O)(=O)NC(=O)N2 [2d] |  | 0.934 ± 0.078 |  |  |  | 0.0151 ± 0.0009 | 0 | 1.27 | 0.764 |  | active | 0 colonies
Cc1ccc(C)c2c1NC(=O)NS2(=O)=O [2e] | <0.2 | > 10 | 2.37 ± 0.167 | 0.9 | 1.4 | 1.54 ± 0.091 |  | 2.54 | 2.19 |  |  | 
Cc1cc(C)c2c(c1)NC(=O)NS2(=O)=O [2f] | <0.3 | > 10 | 4.48 ± 0.277 | 0.7 | 1.3 | 2.25 ± 0.168 |  | 1.92 | 2.94 |  |  | 
O=C1Nc2c(F)cccc2S(=O)(=O)N1 [2g] | 0.1 | 1.29 ± 0.096 | 0.0629 ± 0.0025 | 2.2 | 8.6 | 0.0162 ± 0.0011 |  | 0.547 | 0.14 |  |  | 
O=C1Nc2ccc(F)cc2S(=O)(=O)N1 [2h] |  | 1.83 ± 0.137 | 0.0425 ± 0.0016 |  |  |  | 0 | 1.29 | 0.534 |  | active | 0 colonies
O=C1Nc2c(Cl)cccc2S(=O)(=O)N1 [2i] | 0.5 | 1.5 ± 0.089 | 0.214 ± 0.013 | 3.2 | 15.5 | 0.0443 ± 0.0029 |  | 0.93 | 0.686 |  |  | 
O=C1Nc2ccc(Cl)cc2S(=O)(=O)N1 [2j] | 0.5 | 2.46 ± 0.174 | 0.0671 ± 0.0043 | 17.0 | 28.7 | 0.0398 ± 0.0022 |  | 1.86 | 1.14 |  |  | 
O=C1Nc2c(Br)cccc2S(=O)(=O)N1 [2k] | 0.5 | 0.993 ± 0.033 | 0.458 ± 0.025 | 1.1 | 6.4 | 0.0824 ± 0.0049 |  | 2.32 | 0.527 |  |  | 
O=C1Nc2ccc(Br)cc2S(=O)(=O)N1 [2l] | 0.8 | 2.96 ± 0.213 | 0.2 ± 0.014 | 11.8 | 26.2 | 0.0901 ± 0.0067 |  | 4.4 | 2.36 |  |  | 
COc1ccc2c(c1)S(=O)(=O)NC(=O)N2 [2m] | 0.7 | 2.76 ± 0.166 | 0.152 ± 0.011 | 12.6 | 32.5 | 0.0592 ± 0.0042 |  | 3.81 | 1.92 |  |  | 
O=C1Nc2c(ccc3ccccc23)S(=O)(=O)N1 [2n] | 0.5 | 1.04 ± 0.041 | 0.995 ± 0.035 | 0.5 | 4.0 | 0.12 ± 0.008 |  | 2.07 | 0.484 |  |  | 
CN1C(=O)NS(=O)(=O)c2ccccc21 [2o] | 1.5 | 0.556 ± 0.037 | 0.0396 ± 0.0021 | 21.5 | 26.2 | 0.0325 ± 0.0024 |  | 3.41 | 0.853 |  |  | 
CN1C(=O)NS(=O)(=O)c2cc(Cl)ccc21 [2p] | 2.0 | 1.18 ± 0.075 | 0.135 ± 0.009 | 17.3 | 50.8 | 0.046 ± 0.0033 |  | > 10 | 2.34 |  |  | 
O=C1NS(=O)(=O)c2cccc3c2N1CC3 [2q] | 1.2 | 0.883 ± 0.024 | 0.599 ± 0.031 | 1.8 | 13.9 | 0.0762 ± 0.0056 |  | 6.86 | 1.06 |  |  | 
O=C1Nc2c(C(=O)O)cccc2S(=O)(=O)N1 [2r] | 0.7 | 3.28 ± 0.204 | 0.105 ± 0.006 | 23.2 | 37.4 | 0.0654 ± 0.0039 |  | 5.78 | 2.45 |  |  | 
O=C1Nc2ccc(C(=O)O)cc2S(=O)(=O)N1 [2s] | 1.4 |  | 0.223 ± 0.018 | 30.4 |  | 0.101 ± 0.005 |  | > 10 | 6.78 | 4.87 ± 0.315 |  | 
O=C1Nc2ccc(O)cc2S(=O)(=O)N1 [2t] | 1.3 | 2.39 ± 0.126 | 0.0584 ± 0.0041 | 51.8 | 66.3 | 0.0456 ± 0.0035 | 0 | 1.89 | 3.02 |  |  | 30–100 colonies
CC(=O)Nc1nnc(S(N)(=O)=O)s1 [AAZ, acetazolamide, reference compound] |  |  |  |  |  |  | 0 |  |  |  | active | 0 colonies
CC(=O)/N=c1/sc(S(N)(=O)=O)nn1C [MTZ, reference compound] |  |  |  |  |  |  | 0 |  |  |  |  | 30–100 colonies
